Reference: ChEMBL document CHEMBL3108775, “Rescuing biological activity from synthetic phakellistatin 19” (J Med Chem, 2013)
Numbered stars: 1 amine (or outer) side, 2 acyl side, 3 side chain; on linkers, the order of the positions; unused ones are H or OH. Square brackets hold non-standard residues; d marks the D form. Peptide text beside a SMILES is read from it. X1 = CC1(C)SC[C@@H](C(=O)[*:2])N1[*:1]

Tests used:
A549 [1] = assay: Cytotoxicity against human A549 cells by MTT assay; assay type: functional
MDA-MB-231 [2] = assay: Cytotoxicity against human MDA-MB-231 cells by MTT assay; assay type: functional
HT-29 [3] = assay: Cytotoxicity against human HT-29 cells by MTT assay; assay type: functional
MDA-MB-231 [4] = assay: Antimitotic activity against human MDA-MB-231 cells; assay type: functional, cell-based
HT-29 [5] = assay: Antimitotic activity against human HT-29 cells; assay type: functional, cell-based
A549 [6] = assay: Antimitotic activity against human A549 cells; assay type: functional, cell-based

| SMILES | GI50 (A549 [1]) [µM] | LC50 (A549 [1]) [µM] | TGI (A549 [1]) [µM] | GI50 (MDA-MB-231 [2]) [nM] | LC50 (MDA-MB-231 [2]) [µM] | TGI (MDA-MB-231 [2]) [µM] | GI50 (HT-29 [3]) [nM] | LC50 (HT-29 [3]) [µM] | TGI (HT-29 [3]) [nM] | IC50 (MDA-MB-231 [4]) [nM] | IC50 (HT-29 [5]) [nM] | IC50 (A549 [6]) [nM] |
| --- | --- | --- | --- | --- | --- | --- | --- | --- | --- | --- | --- | --- |
| CC[C@H](C)[C@@H]1NC(=O)[C@@H]2CSC(C)(C)N2C(=O)[C@H]([C@@H](C)O)NC(=O)[C@H](CC(C)C)NC(=O)[C@@H]2CCCN2C(=O)[C@H](Cc2ccccc2)NC(=O)[C@H](Cc2c[nH]c3ccccc23)NC(=O)[C@@H]2CSC(C)(C)N2C1=O (cyclo(FPLT[X1]I[X1]W)) | 3.64 | > 9.58 | > 9.58 | 2200 | 5.08 | 3.35 | 1820 | 2.39 | 2110 |  |  |  |
| CC[C@H](C)[C@@H]1NC(=O)[C@@H]2CSC(C)(C)N2C(=O)[C@H]([C@@H](C)O)NC(=O)[C@H](CC(C)C)NC(=O)[C@@H]2CCCN2C(=O)[C@H](Cc2ccccc2)NC(=O)[C@H](Cc2c[nH]c3ccccc23)NC(=O)[C@@H]2CCCN2C1=O (cyclo(FPLT[X1]IPW)) | > 10 | > 10 | > 10 | 2700 | 6.01 | 4.11 | 4010 | 4.61 | 4210 |  |  |  |
| CC[C@H](C)[C@@H]1NC(=O)[C@@H]2CCCN2C(=O)[C@H]([C@@H](C)O)NC(=O)[C@H](CC(C)C)NC(=O)[C@@H]2CCCN2C(=O)[C@H](Cc2ccccc2)NC(=O)[C@H](Cc2c[nH]c3ccccc23)NC(=O)[C@@H]2CCCN2C1=O [STYLISSAMIDE X] (cyclo(FPLTPIPW)) | 0.44 | > 10.5 | 1.16 | 515 | > 10.5 | 1.47 | 462 | > 10.5 | 672 | 84 | 84 | 84 |
| CC[C@H](C)[C@@H]1NC(=O)[C@@H]2CCCN2C(=O)[C@H]([C@@H](C)O)NC(=O)[C@H](CC(C)C)NC(=O)[C@@H]2CSC(C)(C)N2C(=O)[C@H](Cc2ccccc2)NC(=O)[C@H](Cc2c[nH]c3ccccc23)NC(=O)[C@@H]2CCCN2C1=O (cyclo(F[X1]LTPIPW)) | > 10 | > 10 | > 10 | 6110 | > 10 | > 10 | 5710 | > 10 | > 10000 |  |  |  |
| CC[C@H](C)[C@@H]1NC(=O)[C@@H]2CSC(C)(C)N2C(=O)[C@H]([C@@H](C)O)NC(=O)[C@H](CC(C)C)NC(=O)[C@@H]2CSC(C)(C)N2C(=O)[C@H](Cc2ccccc2)NC(=O)[C@H](Cc2c[nH]c3ccccc23)NC(=O)[C@@H]2CSC(C)(C)N2C1=O (cyclo(F[X1]LT[X1]I[X1]W)) | 1.47 | 1.83 | 1.65 | 1650 | 2.2 | 1.93 | 1380 | 2.11 | 1740 |  |  |  |
| CC[C@H](C)[C@@H]1NC(=O)[C@@H]2CSC(C)(C)N2C(=O)[C@H]([C@@H](C)O)NC(=O)[C@H](CC(C)C)NC(=O)[C@@H]2CSC(C)(C)N2C(=O)[C@H](Cc2ccccc2)NC(=O)[C@H](Cc2c[nH]c3ccccc23)NC(=O)[C@@H]2CCCN2C1=O (cyclo(F[X1]LT[X1]IPW)) | 3.45 | > 9.58 | 7.85 | 1720 | 2.3 | 2.01 | 1820 | 2.68 | 2200 |  |  |  |
| CC[C@H](C)[C@@H]1NC(=O)[C@@H]2CCCN2C(=O)[C@H]([C@@H](C)O)NC(=O)[C@H](CC(C)C)NC(=O)[C@@H]2CSC(C)(C)N2C(=O)[C@H](Cc2ccccc2)NC(=O)[C@H](Cc2c[nH]c3ccccc23)NC(=O)[C@@H]2CSC(C)(C)N2C1=O (cyclo(F[X1]LTPI[X1]W)) | > 9.58 | > 9.58 | > 9.58 | 5650 | > 9.58 | > 9.58 | 3160 | > 9.58 | 6610 |  |  |  |
| CC[C@H](C)[C@@H]1NC(=O)[C@@H]2CCCN2C(=O)[C@H]([C@@H](C)O)NC(=O)[C@H](CC(C)C)NC(=O)[C@@H]2CCCN2C(=O)[C@H](Cc2ccccc2)NC(=O)[C@H](Cc2c[nH]c3ccccc23)NC(=O)[C@@H]2CSC(C)(C)N2C1=O (cyclo(FPLTPI[X1]W)) | > 10 | > 10 | > 10 | > 10000 | > 10 | > 10 | > 10000 | > 10 | > 10000 |  |  |  |
